This is an account of results in US20250034171A1, “IMIDAZOPYRIDINE AMIDES AND RELATED COMPOUNDS FOR USE IN THE TREATMENT OF BACTERIAL INFECTIONS” (priority 2021, published 2025).

A word on the MIC90: it is an inhibitory concentration at the 90% level, which refers to growth in some studies and to a panel of isolates in others.

Series [1] can be described thus: Metabolic stability in liver microsomes (intrinsic clearance). The series is classed as in vitro ADME. Conditions: microsomes. The procedure:
The test compound was incubated under the generic condition (0.5 mg/ml microsomal protein, 1 mM NADPH, 1 mM MgCl2, and 0.1 M phosphate buffer, pH 7.4, 37° C.) at a defined substrate concentration (typically 1 μM) in liver microsomes of selected species across a time course (typically 0, 5, 10, 20, 40 and 60 minutes) at Cyprotex (Cheshire, UK). The liver microsomes, buffer and test compound will be pre-incubated for 5 minutes. The addition of the co-factor NADPH will initiate the reaction and the reaction was terminated by addition of acetonitrile. The samples were centrifuged prior to analysis by LC-MS/MS analysis. The relative amount of parent compound remaining in the active incubations vs. the control incubations (t=0 mins) for each compound was measured by peak area comparison. The in vitro metabolic half-life (t1/2) was calculated using the slope of the log-linear regression from the percentage parent compound remaining versus time relationship (κ), The in vitro intrinsic clearance (Cl^int) (μl/min/mg microsomal protein) was calculated using the in vitro metabolic half-life, incubation volume and the weight of microsomal protein in the incubation.
Background: Liver microsomes are vesicles of endoplasmic reticulum, rich in cytochrome P450 enzymes.

For series [2], the system named is Mycobacterium tuberculosis strain H37Rv. The series is described as follows: Test 2: MIC determination against M. tuberculosis, resazurin fluorescence. The class given is cell-based. Conditions: Test 2, M. tuberculosis H37Rv; for MIC90: read-out: Bacterial activity MIC90; for IC50: read-out: Bacterial activity pMIC50 (converted). (The colour change of resazurin is a common sign of viable cells or microbes.)

Setting [3] is: Mycobacterium tuberculosis, H37RV.

The structures appear in SMILES notation. Values after ≈ are worked out from the molar mass of the structure shown. Where two headings read alike, the source gives them in different places. Where only a bound is given, the exact number is not on record here.

Consider `CCc1nc2ncc(C)cn2c1C(=O)NCc1ccc(-c2nc3n(n2)CCC(C(F)(F)F)C3)cc1` (single isomer, unassigned) [Compound 1b], for which, in series [1] (human), the “Metabolic Stability (liver microsome intrinsic clearance) Clearance (human, μl/min./mg protein)” value worked out at 7.81 μl/min./mg protein and the “Metabolic Stability Half life (human, min.)” value was determined as 2.97 h. Also, in series [1], the “Metabolic Stability (liver microsome intrinsic clearance) Clearance (mouse, μl/min./mg protein)” value is given as 7.8 μl/min./mg protein and the “Metabolic Stability Half life (mouse, min.)” value came to 2.97 h. Also, in series [2], the “Bacterial activity pMIC50” value is 8.576 and the MIC90 was 0.007 µM (≈ 0.00338 µg/mL).
For `CCc1nc2ncccn2c1C(=O)NCc1ccc(-c2nc3n(n2)CC[C@@H](C(F)(F)F)C3)c(F)c1` (single isomer, unassigned) [Compound 73], in series [1], the “Metabolic Stability (liver microsome intrinsic clearance) Clearance (mouse, μl/min./mg protein)” value was below 7.7 μl/min./mg protein and the “Metabolic Stability Half life (mouse, min.)” value is above 3 h. In series [2], the “Bacterial activity pMIC50” value turned out to be 7.18 and the MIC90 amounted to 0.35 µM (≈ 0.171 µg/mL).
The matching figures for `CCc1nc2ncccn2c1C(=O)NCc1ccc(-c2nc3n(n2)CC[C@H](C(F)(F)F)C3)c(F)c1` (single isomer, unassigned) [Compound 74]: below 7.7 μl/min./mg protein, above 3 h, 6.94 and above 0.5 µM.
The matching figures for `CCc1nc2n(c1C(=O)NCc1ccc(-c3nc4n(n3)CC[C@H](C(F)(F)F)C4)c(F)c1)CCCC2` (single isomer, unassigned) [Compound 77]: 26.1 μl/min./mg protein, 0.885 h, 7.6 and 0.098 µM (≈ 0.0481 µg/mL).
Take `CCc1nc2ncc(C)cn2c1C(=O)NCc1ccc(-c2nc3n(n2)CCCC3)c(C)n1` [Compound 148]: in series [2] (setting [3]), the MIC90 was above 0.5 µM and the IC50 is 331000 pM.
On the same counts, the results for `CCc1nc2ncccn2c1C(=O)NCc1ccc(-c2nc3n(n2)CCC(C)C3)cc1` (stereo not shown) [Compound 149] are above 0.5 µM and 229000 pM.
Take `[2H]C([2H])([2H])c1cnc2nc(CC)c(C(=O)NCc3ccc(-c4nc5n(n4)CC[C@@H](C)C5)cc3)n2c1` [Compound 150]: in series [2] (setting [3]), the MIC90 turned out to be 0.03 µM (≈ 0.013 µg/mL) and the IC50 is 10000 pM.
On the same counts, the results for `CCc1nc2ccc(C(F)(F)F)cn2c1C(=O)NCc1ccc(-c2cn3c(n2)C[C@@H](C(F)(F)F)CC3)cc1` [Compound 153] are above 0.5 µM and above 501000 pM.
For `CCc1nc2ccc(C(F)(F)F)cn2c1C(=O)NCc1ccc(-c2cn3c(n2)C[C@H](C(F)(F)F)CC3)cc1` [Compound 154], in series [2] (setting [3]), the MIC90 is above 0.5 µM and the IC50 is above 501000 pM.
On the same counts, the results for `CCc1nc2ncc(C(F)(F)F)cn2c1C(=O)NCc1ccc(-c2nc3n(n2)CC[C@@H](C)C3)cc1` [Compound 155] are above 0.5 µM and above 501000 pM.
On the same counts, the results for `CCc1nc2ncccn2c1C(=O)NCc1ccc(-c2nc3n(n2)CC[C@@H](C)C3)cc1` [Compound 156] are above 0.5 µM and 191000 pM.
`CCc1nc2ncccn2c1C(=O)NCc1ccc(-c2nc3n(n2)CC[C@H](C)C3)cc1` [Compound 157]: in series [2] (setting [3]), the MIC90 amounted to 0.41 µM (≈ 0.17 µg/mL) and the IC50 was 126000 pM.
The matching figures for `CCc1nc2ncccn2c1C(=O)NCc1ccc(-c2cn3c(n2)C[C@H](C(F)(F)F)CC3)cc1` [Compound 158]: 0.29 µM (≈ 0.136 µg/mL) and 75900 pM.
On the same counts, the results for `CCc1nc2ccccn2c1C(=O)NCc1ccc(-c2nc3n(n2)CC[C@H](C)C3)cc1` [Compound 159] are 0.037 µM (≈ 0.0153 µg/mL) and 11000 pM.
For the compound `CCc1nc2n(c1C(=O)NCc1ccc(-c3nc4n(n3)CC[C@H](C)C4)cc1)CCCC2` [Compound 160], in series [2] (setting [3]), the MIC90 came to 0.088 µM (≈ 0.0368 µg/mL) and the IC50 is 35500 pM.
Take `CCc1nc2ccccn2c1C(=O)NCc1ccc(-c2cn3c(n2)C[C@@H](C(F)(F)F)CC3)cc1` [Compound 161]: in series [2] (setting [3]), the MIC90 is 0.056 µM (≈ 0.0262 µg/mL) and the IC50 was 18600 pM.
The matching figures for `CCc1nc2ccccn2c1C(=O)NCc1ccc(-c2nc3n(n2)CC[C@@H](C)C3)cc1` [Compound 162]: 0.044 µM (≈ 0.0182 µg/mL) and 11200 pM.
For the compound `CCc1nc2n(c1C(=O)NCc1ccc(-c3nc4n(n3)CC[C@@H](C)C4)cc1)CCCC2` [Compound 163], in series [2] (setting [3]), the MIC90 was 0.17 µM (≈ 0.0712 µg/mL) and the IC50 was 66100 pM.
Regarding `CCc1nc2n(c1C(=O)NCc1ccc(-c3cn4c(n3)C[C@H](C(F)(F)F)CC4)cc1)CCCC2` [Compound 164], in series [2] (setting [3]), the MIC90 was 0.058 µM (≈ 0.0273 µg/mL) and the IC50 was 17000 pM.
As to `CCc1nc2ccccn2c1C(=O)NCc1ccc(-c2cn3c(n2)C[C@H](C(F)(F)F)CC3)cc1` [Compound 165], in series [2] (setting [3]), the MIC90 worked out at 0.055 µM (≈ 0.0257 µg/mL) and the IC50 was 16200 pM.
On the same counts, the results for `CCc1nc2ncccn2c1C(=O)NCc1ccc(-c2cn3c(n2)C[C@@H](C(F)(F)F)CC3)cc1` [Compound 166] are above 0.5 µM and 145000 pM.
With `CCc1nc2n(c1C(=O)NCc1ccc(-c3nc4n(n3)CC[C@@H](C(F)(F)F)C4)cc1)C[C@@H](OC)CC2` [Compound 167], in series [2] (setting [3]), the MIC90 was found to be 0.45 µM (≈ 0.226 µg/mL) and the IC50 is 132000 pM.
In the case of `CCc1nc2n(c1C(=O)NCc1ccc(-c3nc4n(n3)CC[C@H](C(F)(F)F)C4)cc1)C[C@@H](OC)CC2` [Compound 168], in series [2] (setting [3]), the MIC90 stood at 0.5 µM (≈ 0.251 µg/mL) and the IC50 is 174000 pM.
For the compound `O=C(NCc1ccc(-c2nc3n(n2)CC[C@H](C(F)(F)F)C3)cc1)c1c(C(F)(F)F)nc2ncccn12` [Compound 170], in series [2] (setting [3]), the MIC90 was above 0.45 µM and the IC50 was above 275000 pM.
The matching figures for `CCc1nc2ncccn2c1C(=O)NCc1ccc(-c2nc3n(n2)CC[C@@H](C(F)(F)F)C3)cc1` [Compound 171]: 0.18 µM (≈ 0.0845 µg/mL) and 46800 pM.
`CCc1nc2ncc(C(F)(F)F)cn2c1C(=O)NCc1ccc(-c2nc3n(n2)CC[C@@H](C(F)(F)F)C3)cc1` [Compound 172]: in series [2] (setting [3]), the MIC90 was above 0.46 µM and the IC50 is above 295000 pM.
Regarding `CCc1nc2ncc(C(F)(F)F)cn2c1C(=O)NCc1ccc(-c2nc3n(n2)CC[C@H](C(F)(F)F)C3)cc1` [Compound 173], in series [2], the “Bacterial activity pMIC50” value was below 6.49 and the MIC90 is listed as above 0.47 µM.
Take `CCc1nc2ncc(Cl)cn2c1C(=O)NCc1ccc(-c2cn3c(n2)C[C@H](C(F)(F)F)CC3)cc1` [Compound 175]: in series [2] (setting [3]), the MIC90 stood at 0.059 µM (≈ 0.0297 µg/mL) and the IC50 is 21900 pM.
Regarding `CCc1nc2ncc(Cl)cn2c1C(=O)NCc1ccc(-c2cn3c(n2)C[C@@H](C(F)(F)F)CC3)cc1` [Compound 176], in series [2] (setting [3]), the MIC90 came out at 0.039 µM (≈ 0.0196 µg/mL) and the IC50 was 12600 pM.
On the same counts, the results for `CCc1nc2ncccn2c1C(=O)NCc1ccc(-c2nc3n(n2)C[C@@H](C(F)(F)F)CC3)cc1` [Compound 181] are 0.22 µM (≈ 0.103 µg/mL) and 57500 pM.
For `CCc1nc2ncccn2c1C(=O)NCc1ccc(-c2nc3n(n2)C[C@H](C(F)(F)F)CC3)cc1` [Compound 182], in series [2] (setting [3]), the MIC90 stood at 0.2 µM (≈ 0.0939 µg/mL) and the IC50 was 52500 pM.
The matching figures for `CCc1nc2n(c1C(=O)NCc1ccc(-c3cn4c(n3)CC(C(F)(F)F)CC4)c(F)c1)CCCC2` (stereo not shown) [Compound 185]: 0.034 µM (≈ 0.0166 µg/mL) and 9770 pM.
The matching figures for `CCc1nc2ncccn2c1C(=O)NCc1ccc(-c2cc3n(n2)CCCC3)cc1` [Compound 187]: above 0.5 µM and 151000 pM.
As for `CCc1nc2n(c1C(=O)NCc1ccc(-c3nc4n(n3)CC(C(F)(F)F)CC4)cc1)CCCC2` (stereo not shown) [Compound 188], in series [2] (setting [3]), the MIC90 was determined as 0.23 µM (≈ 0.109 µg/mL) and the IC50 is 22900 pM.
As for `CCc1nc2ncccn2c1C(=O)NCc1ccc(-c2nc3n(n2)CCC(C(C)(F)F)C3)cc1` (stereo not shown) [Compound 189], in series [2] (setting [3]), the MIC90 turned out to be 0.33 µM (≈ 0.154 µg/mL) and the IC50 is 87100 pM.
Take `CCc1nc2ncccn2c1C(=O)NCc1ccc(-c2nc3n(n2)CC[C@H](C(F)(F)F)C3)cc1` [Compound 190]: in series [2] (setting [3]), the MIC90 stood at 0.19 µM (≈ 0.0892 µg/mL) and the IC50 is 47900 pM.
Regarding `CCc1nc2ncc(C(F)(F)F)cn2c1C(=O)NCc1ccc(-c2cn3c(n2)C[C@H](C(F)(F)F)CC3)cc1` [Compound 192], in series [2] (setting [3]), the MIC90 was above 5 µM and the IC50 is 1.55e+06 pM.
On the same counts, the results for `CCc1nc2ncc(C(F)(F)F)cn2c1C(=O)NCc1ccc(-c2cn3c(n2)C[C@@H](C(F)(F)F)CC3)cc1` [Compound 193] are above 0.5 µM and above 501000 pM.
The matching figures for `CCc1nc2ncc(N)cn2c1C(=O)NCc1ccc(-c2nc3n(n2)CCC(C(F)(F)F)C3)c(F)c1` (stereo not shown) [Compound 197]: 0.21 µM (≈ 0.106 µg/mL) and 69200 pM.
On to `CCc1nc2ncc(N)cn2c1C(=O)NCc1ccc(-c2nc3n(n2)CCC(C(F)(F)F)C3)c(C)c1` (stereo not shown) [Compound 198], for which, in series [2] (setting [3]), the MIC90 was 0.15 µM (≈ 0.0748 µg/mL) and the IC50 was 45700 pM.
On the same counts, the results for `CCc1nc2ncc(N)cn2c1C(=O)NCc1ccc(-c2nc3n(n2)CCCC3)cc1` [Compound 199] are above 0.5 µM and above 501000 pM.
`CCc1nc2ncc(N)cn2c1C(=O)NCc1ccc(-c2nc3n(n2)CCC(C(C)(F)F)C3)cc1` (stereo not shown) [Compound 200]: in series [2] (setting [3]), the MIC90 came out at 0.22 µM (≈ 0.106 µg/mL) and the IC50 is 61700 pM.
